In patent publication US11154058B2, “Fungicidal compositions” (SYNGENTA PARTICIPATIONS AG, priority 2017, dated 2021):

Experiments:
[1] = system: Puccinia recondita f. Sp. Tritici; assay: Puccinia recondita f. sp. tritici / wheat / leaf disc preventative (brown rust); assay type: in vivo; conditions: foliar, compared to untreated control, read-out: disease control
Procedure: Puccinia recondita f. Sp. Tritici/Wheat/Leaf Disc Preventative (Brown Rust) Wheat leaf segments cv. Kanzler were placed on agar in multiwell plates (24-well format) and sprayed with the formulated test compound or mixture composition diluted in water. The leaf disks were inoculated with a spore suspension of the fungus 1 day after application. The inoculated leaf segments were incubated at 19° C. and 75% rh under a light regime of 12 h light/12 h darkness in a climate cabinet and the activity of a compound or mixture composition was assessed as percent disease control compared to untreated when an appropriate level of disease damage appears in untreated check leaf segments (7-9 days after application).

Phakopsora pachyrhizi = Phakopsora pachyrhizi / soybean / preventative (soybean rust); assay type: in vivo; conditions: foliar, soybean leaf disc, compared to untreated control
Procedure: Phakopsora pachyrhizi/Soybean/Preventative (Soybean Rust) Soybean leaf disks are placed on water agar in multiwell plates (24-well format) and sprayed with the formulated test compound diluted in water. One day after application leaf discs are inoculated by spraying a spore suspension on the lower leaf surface. After an incubation period in a climate cabinet of 24-36 hours in darkness at 20° C. and 75% rh leaf disc are kept at 20° C. with 12 h light/day and 75% rh. The activity of a compound is assessed as percent disease control compared to untreated when an appropriate level of disease damage appears in untreated check leaf disks (12-14 days after application).

[2] = system: Puccinia recondita f. Sp. Tritici; assay: Puccinia recondita f. sp. tritici / wheat / leaf disc curative (brown rust); assay type: in vivo; conditions: foliar, compared to untreated control, read-out: disease control
Procedure: Puccinia recondita f. Sp. Tritici/Wheat/Leaf Disc Curative (Brown Rust)
Wheat leaf segments cv. Kanzler are placed on agar in multiwell plates (24-well format). The leaf segments are inoculated with a spore suspension of the fungus. Plates were stored in darkness at 19° C. and 75% rh. The formulated test compound or mixture composition diluted in water was applied 1 day after inoculation. The leaf segments were incubated at 19° C. and 75% rh under a light regime of 12 h light/12 h darkness in a climate cabinet and the activity of a compound or mixture composition was assessed as percent disease control compared to untreated when an appropriate level of disease damage appears in untreated check leaf segments (6-8 days after application).

[3] = system: Blumeria graminis f. Sp. Tritici (Erysiphe graminis f. Sp. Tritici); assay: Blumeria graminis f. sp. tritici / wheat / leaf disc preventative (powdery mildew on wheat); assay type: in vivo; conditions: foliar, compared to untreated control, read-out: disease control
Procedure: Blumeria graminis f. Sp. Tritici (Erysiphe graminis f. Sp. Tritici)/Wheat/Leaf Disc Preventative (Powdery Mildew on Wheat)
Wheat leaf segments cv. Kanzler were placed on agar in a multiwell plate (24-well format) and sprayed with the formulated test compound or mixture composition diluted in water. The leaf disks were inoculated by shaking powdery mildew infected plants above the test plates 1 day after application. The inoculated leaf disks were incubated at 20° C. and 60% rh under a light regime of 24 h darkness followed by 12 h light/12 h darkness in a climate chamber and the activity of a compound or mixture composition was assessed as percent disease control compared to untreated when an appropriate level of disease damage appears on untreated check leaf segments (6-8 days after application).

SMILES	pest or weed control at 200 ppm [1] [%]	melting point [°C]	pest or weed control at 200 ppm (Phakopsora pachyrhizi) [%]	pest or weed control at 200 ppm [2] [%]	pest or weed control at 200 ppm [3] [%]
COc1cc(/N=C/N(C)C(C)C)c(C)cc1C(O)(c1ccccc1)C(F)(F)F (centres unmarked) [Q.008, N-isopropyl-N′-[5-methoxy-2-methyl-4-(2,2,2-trifluoro-1-hydroxy-1-phenyl-ethyl)phenyl]-N-methyl-formamidine]	≥ 80	110 to 111	≥ 80	≥ 80	
CCN(C)/C=N/c1cc(OC)c(C(O)(COCC2CCC2)C(F)(F)F)cc1C (centres unmarked) [Q.004, N′-[4-[1-(cyclobutylmethoxymethyl)-2,2,2-trifluoro-1-hydroxy-ethyl]-5-methoxy-2-methyl-phenyl]-N-ethyl-N-methyl-formamidine]	≥ 80		≥ 80	≥ 80	≥ 80
CCN(C)/C=N/c1cc(OC)c(C(O)(COC2CCCC2)C(F)(F)F)cc1C (centres unmarked) [Q.005, N′-[4-[1-(cyclopentoxymethyl)-2,2,2-trifluoro-1-hydroxy-ethyl]-5-methoxy-2-methyl-phenyl]-N-ethyl-N-methyl-formamidine]			≥ 80		
CCO/N=C(\C)CC(O)(c1cc(C)c(/N=C/N(C)CC)cc1OC)C(F)(F)F (centres unmarked) [Q.001, N′-[4-[(3E)-3-ethoxyimino-1-hydroxy-1-(trifluoromethyl)butyl]-5-methoxy-2-methyl-phenyl]-N-ethyl-N-methyl-formamidine]	≥ 80		≥ 80	≥ 80	≥ 80
CCCCC(O)(c1cc(C)c(/N=C/N(C)C(C)C)cc1OC)C(F)(F)F (centres unmarked) [Q.007, N′-[4-[1-hydroxy-1-(trifluoromethyl)pentyl]-5-methoxy-2-methyl-phenyl]-N-isopropyl-N-methyl-formamidine]	≥ 80		≥ 80	≥ 80	≥ 80
C=C(C)CC(O)(c1cc(C)c(/N=C/N(C)C(C)C)cc1OC)C(F)(F)F (centres unmarked) [Q.006, N′-[4-[1-hydroxy-3-methyl-1-(trifluoromethyl)but-3-enyl]-5-methoxy-2-methyl-phenyl]-N-isopropyl-N-methyl-formamidine]	≥ 80	90 to 95	≥ 80	≥ 80	≥ 80
CCN(C)/C=N/c1cc(OC)c(C(O)(c2ccccc2C)C(F)(F)F)cc1C (centres unmarked) [Q.009, N-ethyl-N′-[5-methoxy-2-methyl-4-[2,2,2-trifluoro-1-hydroxy-1-(o-tolyl)ethyl]phenyl]-N-methyl-formamidine]	≥ 80	115 to 117	≥ 80	≥ 80	≥ 80
COc1cc(/N=C/N(C)C(C)C)c(C)cc1C(O)(C1CC1)C(F)(F)F (centres unmarked) [Q.003, N′-[4-(1-cyclopropyl-2,2,2-trifluoro-1-hydroxy-ethyl)-5-methoxy-2-methyl-phenyl]-N-isopropyl-N-methyl-formamidine]	≥ 80	90 to 93	≥ 80	≥ 80	≥ 80
CCCCOCC(O)(c1cc(C)c(/N=C/N(C)CC)cc1OC)C(F)(F)F (centres unmarked) [Q.002, N′-[4-[1-(butoxymethyl)-2,2,2-trifluoro-1-hydroxy-ethyl]-5-methoxy-2-methyl-phenyl]-N-ethyl-N-methyl-formamidine]	≥ 80		≥ 80	≥ 80	≥ 80
CCN(C)/C=N/c1cc(OC)c(C(O)(c2cc(F)cc(F)c2)C(F)(F)F)cc1C (centres unmarked) [Q.010, N′-[4-[1-(3,5-difluorophenyl)-2,2,2-trifluoro-1-hydroxy-ethyl]-5-methoxy-2-methyl-phenyl]-N-ethyl-N-methyl-formamidine]	≥ 80	107 to 108	≥ 80	≥ 80	≥ 80
